Source: ChEMBL document CHEMBL3272098, “Reactions of 2-acyloxyisobutyryl halides with nucleosides. 7. Synthesis and biological evaluation of some 2,2'-anhydro-1(3',5'-di-O-acyl-beta-D-arabinofuranosyl)cytosine hydrochlorides” (J Med Chem, 1976)
Active and inactive are the calls of the source. The rule behind the calls is not given here.

What was measured:
L1210 [1] = test: Antitumor activity against mouse L1210 cells allografted in BDF1 mouse assessed as increase in life span at 50 mg/kg, ip administered 24 hrs post-implantation measured up to 30 days relative to control; assay type: functional; details: route intraperitoneal
HeLa = test: Cytotoxicity against human HeLa cells after 48 hrs by Coulter counting analysis; assay type: functional; details: read-out: ED50 (the source's name)
Vaccinia virus = test: Antiviral activity against Vaccinia virus IHD infected in African green monkey BGM cells after 6 days by plaque reduction assay; assay type: functional; details: Orthopoxvirus vaccinia, 144 h, read-out: ED50 (the source's name)
BGM = test: Antiviral activity against Poliovirus type 1 Mahoney infected in African green monkey BGM cells after 5 days by pulp disk diffusion assay; assay type: functional, cell-based; details: Human poliovirus 1 Mahoney
Herpesviridae sp. = test: Antiviral activity against Herpes simplex virus HF infected in African green monkey BGM cells after 6 days by plaque reduction assay; assay type: functional; details: 144 h, read-out: ED50 (the source's name)
Measles morbillivirus = test: Antiviral activity against Measles virus infected in African green monkey BGM cells after 5 days by pulp disk diffusion assay; assay type: functional, organism-based
Mus musculus [2] = test: Toxicity in BDF1 mouse allografted with mouse L1210 cells assessed as survival at 200 mg/kg, ip administered 24 hrs post-implantation after 30 days; assay type: organism-based; parameters: dose 200 mg/kg, route intraperitoneal; details: in vivo, 720 h
L1210 [3] = test: Antitumor activity against mouse L1210 cells allografted in BDF1 mouse assessed as survival at 50 mg/kg, ip administered 24 hrs post-implantation after 30 days; assay type: functional, organism-based; parameters: dose 50 mg/kg
[4] = system: unidentified influenza virus; test: Antiviral activity against Influenza virus Ao/WNS infected in monkey LLC-MK2 cells after 5 days by pulp disk diffusion assay; assay type: functional, organism-based
L1210 [5] = test: Antitumor activity against mouse L1210 cells allografted in po dosed BDF1 mouse administered 24 hrs post-implantation; assay type: functional, organism-based
Mus musculus [6] = test: Toxicity in BDF1 mouse allografted with mouse L1210 cells assessed as reduction in average life span at 200 mg/kg, ip administered 24 hrs post-implantation measured up to 30 days relative to control; assay type: organism-based; parameters: dose 200 mg/kg, route intraperitoneal; scale not given: the % may be the effect or the level left; details: in vivo
L1210 [7] = test: Antitumor activity against mouse L1210 cells allografted in BDF1 mouse assessed as survival at 200 mg/kg, ip administered 24 hrs post-implantation after 30 days; assay type: functional, organism-based; parameters: dose 200 mg/kg
L1210 [8] = test: Antitumor activity against mouse L1210 cells allografted in BDF1 mouse assessed as increase in life span at 200 mg/kg, ip administered 24 hrs post-implantation measured up to 30 days relative to control; assay type: functional; details: route intraperitoneal
Mus musculus [9] = test: Toxicity in BDF1 mouse allografted with mouse L1210 cells assessed as reduction in average life span at 1000 mg/kg, ip administered 24 hrs post-implantation measured up to 30 days relative to control; assay type: organism-based; parameters: dose 1000 mg/kg, route intraperitoneal; scale not given: the % may be the effect or the level left; details: in vivo
Mus musculus [10] = test: Toxicity in BDF1 mouse allografted with mouse L1210 cells assessed as survival at 1000 mg/kg, ip administered 24 hrs post-implantation after 30 days; assay type: organism-based; parameters: dose 1000 mg/kg, route intraperitoneal; details: in vivo, 720 h
Mus musculus [11] = test: Toxicity in BDF1 mouse allografted with mouse L1210 cells assessed as reduction in average life span at 500 mg/kg, ip administered 24 hrs post-implantation measured up to 30 days relative to control; assay type: organism-based; parameters: dose 500 mg/kg, route intraperitoneal; scale not given: the % may be the effect or the level left; details: in vivo
Mus musculus [12] = test: Toxicity in BDF1 mouse allografted with mouse L1210 cells assessed as survival at 500 mg/kg, ip administered 24 hrs post-implantation after 30 days; assay type: organism-based; parameters: dose 500 mg/kg, route intraperitoneal; details: in vivo, 720 h
L1210 [13] = test: Antitumor activity against mouse L1210 cells allografted in BDF1 mouse assessed as increase in life span at 500 mg/kg, ip administered 24 hrs post-implantation measured up to 30 days relative to control; assay type: functional; details: route intraperitoneal

Compound	ILS at 50 mg/kg (L1210 [1])	EC50 (HeLa)	EC50 (Vaccinia virus)	Activity (BGM)	EC50 (Herpesviridae sp.)	Activity (Measles morbillivirus)	Activity (Mus musculus [2])	Activity (L1210 [3])	Activity [4]	Activity (L1210 [5])	Activity (Mus musculus [6])	Activity (L1210 [7])	ILS at 200 mg/kg (L1210 [8])	Activity (Mus musculus [9])	Activity (Mus musculus [10])	Activity (Mus musculus [11])	Activity (Mus musculus [12])	ILS at 500 mg/kg (L1210 [13])
CCCCCCCCC(=O)OC[C@H]1O[C@@H]2[C@@H](Oc3nc(=N)ccn32)[C@@H]1OC(=O)CCCCCCCC.Cl	14%	0.06 µg/mL	320 nM	inactive	420 nM	inactive	Toxic	inactive	inactive	inactive	88%	–	–	–	–	–	–	–
CC(=O)O[C@H]1[C@@H]2Oc3nc(=N)ccn3[C@@H]2O[C@@H]1COC(=O)C12CC3CC(CC(C3)C1)C2.Cl	–	0.2 µg/mL	640 nM	inactive	2100 nM	inactive	Toxic	–	inactive	inactive	100%	–	–	–	–	–	–	–
CC(=O)O[C@H]1[C@@H]2Oc3nc(=N)ccn3[C@@H]2O[C@@H]1COC(=O)C12C=CC(C)(CC1)CC2.Cl	–	0.2 µg/mL	400 nM	inactive	1750 nM	inactive	–	–	inactive	inactive	–	inactive	20%	–	–	–	–	–
CCCCCCCCCCCCCC(=O)OC[C@H]1O[C@@H]2[C@@H](Oc3nc(=N)ccn32)[C@@H]1OC(=O)CCCCCCCCCCCCC.Cl	> 129%	0.48 µg/mL	1750 nM	inactive	6050 nM	inactive	–	–	inactive	inactive	–	–	> 295%	18%	Toxic	20%	Toxic	–
CC(=O)O[C@H]1[C@@H]2Oc3nc(=N)ccn3[C@@H]2O[C@@H]1COC(=O)C(C)(C)C.Cl	–	0.2 µg/mL	770 nM	inactive	3200 nM	inactive	–	–	inactive	inactive	–	inactive	18%	–	–	–	–	–
CCCCCCCCCCC(=O)OC[C@H]1O[C@@H]2[C@@H](Oc3nc(=N)ccn32)[C@@H]1OC(=O)CCCCCCCCCC.Cl	88%	0.32 µg/mL	410 nM	inactive	660 nM	inactive	–	inactive	inactive	inactive	–	–	> 179%	–	–	–	–	> 20%
CCCCCCCCCCCCCCCC(=O)OC[C@H]1O[C@@H]2[C@@H](Oc3nc(=N)ccn32)[C@@H]1OC(=O)CCCCCCCCCCCCCCC.Cl	–	4 µg/mL	28000 nM	inactive	> 30000 nM	inactive	–	–	inactive	inactive	–	inactive	231%	–	–	–	–	–
CCCCCCCCCC(=O)OC[C@H]1O[C@@H]2[C@@H](Oc3nc(=N)ccn32)[C@@H]1OC(=O)CCCCCCCCC.Cl	14%	0.2 µg/mL	320 nM	inactive	1100 nM	inactive	Toxic	inactive	inactive	inactive	69%	–	–	72%	Toxic	–	–	–
